Laboratory results: US20240207282A1, “METHOD OF INCREASING CHAPERONE MEDIATED AUTOPHAGY BY STABILIZING THE INTERACTION OF RETINOIC ACID RECEPTOR-ALPHA AND AN INHIBITOR” (ALBERT EINSTEIN COLLEGE OF MEDICINE, priority 2021, published 2024)

Tests used:
NIH3T3 cells [1] = assay: CMA activity, KFERQ-PS-Dendra reporter in NIH3T3 cells; type: cell-based, mouse; conditions: for CMA activation after washout: 12 h after washing out the compounds from the media; for CMA activating effect upon knock-down of NCoR1: NCoR1 KD NIH3T3, 20 μM, 24 h; for CMA activation: increasing concentrations, 12 or 24 h, compared with AR7
Experimental: CMA activity: Cells were transduced with lentivirus carrying the KFERQ-PS-Dendra reporter as before. Cells were photoactivated by exposure to a 3.5 mA (current constant) light emitting diode (LED: Norlux, 405 nm) for 3 min and then plated in glass-bottom 96 well plates. At the desired times, cells were fixed with 4% PFA and imaged using high-content microscopy (Operetta system, Perkin Elmer). Images were quantified using the manufacturer's software in a minimum of 1,200 cells in 9 independent fields per well. […] This was particularly important in the case of primary human cells where efficiency of transduction was approximately 65%. To avoid con-funding effects for drug-induced changes in cell volume or adherence to the plate that could bring a fraction of the cells per field outside of focus, we set a threshold to count only cells that have at least 1/10 of the average number of […] detected in the untreated wells for each cell type (3-4 puncta/cell in the case of NIH3T3 and N2a cells and 5 puncta/cell in primary human fibroblasts). To measure CMA in the tissues from KFERQ-Dendra mice, the organs of interest were fixed for 12 h at 4° C. in picric acid fixation buffer (2% formaldehyde, 0.2% picric acid in PBS, pH7.0) and then washed with 70% ethanol, followed by two washes in PBS. Tissues were immersed in 30% sucrose and then embedded in OCT for sectioning in a cryostat (Leica CM3050 S). After airdrying for 30 min, sections were stored at −20° C. until use. Slices were mounted in DAPI-Fluoromount-G to highlight the cell nucleus and allow quantification of puncta per cell. Images were acquired in x-y-z planes with an Axiovert 200 fluorescence microscope (Carl Zeiss Ltd) with a ×63 objective and 1.4 numerical aperture, mounted with an ApoTome.2 slider or with a Confocal microscope (TCS SP5; Leica) using an HCX Plan Apo CS×63.0 1.40 NA oil objective and the Leica Application Suite X (LAS X).

[2] = biological target: T1, human RARα LBD / NCoR1 peptide (Homo sapiens, UniProt P10276); assay: Fluorescence polarization binding assay, RARα LBD with FITC-NCoR1 peptide; conditions: 10 μM compound
T1 construct: human RARα (residues 176-421); His tag; made in house; host or cells: Escherichia coli BL21(DE3)
T1 sequence (P10276 176-421, other chains not shown): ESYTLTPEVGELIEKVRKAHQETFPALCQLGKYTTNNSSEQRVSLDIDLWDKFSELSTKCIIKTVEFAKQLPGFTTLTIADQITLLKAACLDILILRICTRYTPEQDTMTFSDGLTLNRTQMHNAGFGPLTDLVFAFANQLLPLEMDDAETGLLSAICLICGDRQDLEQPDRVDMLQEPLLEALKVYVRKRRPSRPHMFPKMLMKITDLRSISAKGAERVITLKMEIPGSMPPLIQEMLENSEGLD
Experimental: The histidine-tagged ligand binding domain (LBD) of human RARα (residues 176-421) was expressed in Escherichia colic BL21(DE3). Cells were grown at 37° C. in LB medium supplemented with 50 μg/mL kanamycin until OD600 reached about 0.8. Expression of T7 polymerase was induced by addition of isopropyl-b-d-thiogalactoside (IPTG) to a final concentration of 0.8 mM and cells were incubated at 20° C. overnight. Cell cultures were harvested by centrifugation at 8,000×g for 15 mins. The cell pellet from 1 liter of RARα LBD was resuspended in 50 mL lysis buffer (20 mM Tris-HCl pH 8, 500 mM NaCl, 25 mM imidazole) supplemented with ONE COMPLETE, an EDTA-free protease inhibitor tablet (Roche Applied Science). The suspension was lysed using a high-pressure homogenizer and centrifuged at 35,000×g at 4° C. for 45 minutes. […]
The fluorescein-tagged peptide of NCoR1, FITC-Ahx-RLITLADHICQIITQDFAR (FITC-NCoR1) was provided by Genscript at purity>95%. Fluorescence polarization assays (FPA) were performed using established procedures. […] Fluorescence polarization was measured at 30 min on a F200 PRO microplate reader (TECAN) with the excitation wavelength set at 470 nm and emission measured at 530 nm. EC50 values were calculated by nonlinear regression analysis of competitive binding curves using Graphpad Prism software.

KFERQ-Dendra mice = assay: CMA activation in vivo in KFERQ-Dendra mice; design: species or system mouse; conditions: i.p. 30 mg/kg bw daily, three days
Text: Animals: C57BL/6J mice wild-type (WT) and homozygous for the Pde6 mutation (rd10 mouse model of retinal degeneration) were obtained from The Jackson Laboratory. C57BL/6 KFERQ-Dendra mice were generated by back-crossing FVB KFERQ-Dendra mice with wild-type C57BL/6 mice for 8 generations. Both male and female animals were used in this study in equal distribution groups. However, results from both sexes were pooled, because of absence of significant differences in any of the parameters analyzed after statistical analysis with a mixed model of two-way ANOVA sex and treatment as independent variables and the corresponding measure as dependent variable. […]
CMA activity: Cells were transduced with lentivirus carrying the KFERQ-PS-Dendra reporter as before. […] Images were quantified using the manufacturer's software in a minimum of 1,200 cells in 9 independent fields per well. […] To avoid con-funding effects for drug-induced changes in cell volume or adherence to the plate that could bring a fraction of the cells per field outside of focus, we set a threshold to count only cells that have at least 1/10 of the average number of […] detected in the untreated wells for each cell type (3-4 puncta/cell in the case of NIH3T3 and N2a cells and 5 puncta/cell in primary human fibroblasts). […] Slices were mounted in DAPI-Fluoromount-G to highlight the cell nucleus and allow quantification of puncta per cell. […]

NIH3T3 cells [3] = conditions: previously reported; cited from earlier work

Structure (SMILES) | CMA activation after washout (NIH3T3 cells [1]) | CMA activating effect upon knock-down of NCoR1 (NIH3T3 cells [1]) | CMA activation (NIH3T3 cells [1]) | NCoR1 peptide binding to RARα [2] | CMA activation in vivo (KFERQ-Dendra mice) | toxicity (NIH3T3 cells [3])
CC(=O)Nc1ccc(C2=Nc3ccc(Cl)cc3OC2)cc1 [CA77] | activation was still noticeable | completely ablated the activating effect | activate CMA in a time and dose-dependent manner with higher potency than AR7 | enhanced NCoR1 peptide binding to RARα | activate CMA with comparable potency in vivo both in peripheral blood cells and in multiple organs | without noticeable toxicity
Clc1ccc2c(c1)OCC(c1ccc(-c3ccccc3)cc1)=N2 [CA39] | activation was still noticeable | completely ablated the activating effect | activate CMA in a time and dose-dependent manner with higher potency than AR7 | enhanced NCoR1 peptide binding to RARα | activate CMA with comparable potency in vivo both in peripheral blood cells and in multiple organs | without noticeable toxicity
